Measurements published in the NIST ThermoML archive (doi:10.1016/j.fluid.2013.12.002).
Numbers after ± are expanded uncertainties.

Conditions: Liquid, Ebulliometric method (Recirculating still)

## O=Cc1ccccc1 [benzaldehyde]
377.63 K
  vapor or sublimation pressure: 10 ± 0.15 kPa
396.65 K
  vapor or sublimation pressure: 20 ± 0.31 kPa
408.67 K
  vapor or sublimation pressure: 30 ± 0.45 kPa

## O=CC=Cc1ccccc1 [(E)-3-phenyl-2-propanal]
442.84 K
  vapor or sublimation pressure: 10 ± 0.15 kPa
463.15 K
  vapor or sublimation pressure: 20 ± 0.33 kPa
475.83 K
  vapor or sublimation pressure: 30 ± 0.49 kPa

## Cc1ccccc1 [toluene]
383.81 K
  vapor or sublimation pressure: 101.33 ± 1.4 kPa

## c1ccccc1 [benzene]
353.26 K
  vapor or sublimation pressure: 101.33 ± 1.4 kPa
